We go through three molecules from patent US12186467B2, “Cleaning of biological fluid” (GAMBRO LUNDIA AB, priority 2012, dated 2025).

For data set [1], the target named is T1, bovine serum albumin (BSA) (Bos taurus, UniProt P02769).
T1 construct: purchased Sigma-Aldrich
In words: Removal of p-cresol from BSA by repeated addition of water and centrifugation. The format is binding. The following applies: pH 8. The protocol:
The influence of water addition on the binding affinity of p-cresol to bovine serum albumin was investigated in this example, performed at room temperature. 1 ml of a solution comprising 0.02 mg/ml p-cresol and 40 mg/ml bovine serum albumin (BSA) was centrifuged (Visaspin®) for 20 minutes. 0.5 ml of the solution was removed and analysed.
0.5 ml water (Milli-Q quality) was added to the remaining 0.5 ml solution (p-cresol and BSA) and centrifuged (in Vivaspin®) for another 20 minutes before another 0.5 ml was removed for the analysis.
The previous experiment was repeated at elevated temperature. A 1 ml solution containing 0.02 mg/ml p-cresol and 40 mg/ml bovine serum albumin (BSA), pH 8, was centrifuged (Vivaspin®) at 50° C. for 20 minutes until 0.5 ml was removed and analysed. Then 0.5 ml water (Milli-Q) was added to the remaining 0.5 ml solution comprising p-cresol and BSA, centrifuged for 20 minutes until 0.5 ml was removed for the analysis.

The nature of data set [2]: Precipitation observed in displacer/BSA/p-cresol solutions. The format is physicochemical. The protocol: The mixed solutions were centrifuged to remove protein at 5700 rpm for 70 minutes at room temperature before analysis. The pH was adjusted to 7 (physiological pH) by addition of NaOH to the samples. The samples were injected into a HPLC. The measurement of p-cresol by HPLC analysis was performed at room temperature.
The influence of the pH value on the binding affinity of the p-cresol and the binding competitors to the bovine serum albumin (BSA) was investigated. […] The pH was adjusted by adding sodium hydroxide (NaOH) or hydrochloric acid (HCl). The tests were performed with the following displacer substances: sodium salicylate, sodium octanoate and sodium acetylsalicylate. […] At pH 5 the albumin exists in the N form. The results are present in Table 4

T1 sequence (P02769 25-607): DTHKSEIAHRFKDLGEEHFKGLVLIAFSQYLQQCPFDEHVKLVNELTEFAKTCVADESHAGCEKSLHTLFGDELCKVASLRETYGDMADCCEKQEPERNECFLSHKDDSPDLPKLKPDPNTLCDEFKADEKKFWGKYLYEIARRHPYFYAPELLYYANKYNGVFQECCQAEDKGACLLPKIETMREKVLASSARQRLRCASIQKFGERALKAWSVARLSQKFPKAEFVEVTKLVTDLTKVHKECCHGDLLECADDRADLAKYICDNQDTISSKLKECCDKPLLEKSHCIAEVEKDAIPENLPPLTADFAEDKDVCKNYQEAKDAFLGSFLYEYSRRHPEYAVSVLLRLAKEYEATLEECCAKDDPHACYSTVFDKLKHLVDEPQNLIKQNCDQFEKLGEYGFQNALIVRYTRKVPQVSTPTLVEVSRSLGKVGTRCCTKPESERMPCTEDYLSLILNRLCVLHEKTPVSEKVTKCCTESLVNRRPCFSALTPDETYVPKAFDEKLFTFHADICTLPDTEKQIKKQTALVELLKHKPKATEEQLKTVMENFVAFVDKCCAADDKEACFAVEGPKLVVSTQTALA

In the case of `Cc1ccc(O)cc1` [p-cresol], the p-cresol considered unbound entry in data set [1] (after addition of 5 ml water, 50° C.) is “About 100%”. Moreover, the “added p-cresol removed from the binding sites on BSA” value in data set [1] (water addition repeated 16 times, room temperature) is recorded as ~100%. For the same molecule, the “calculated amount of p-cresol removed” value in data set [1] (water addition repeated 16 times, room temperature, 0.02 mg p-cresol added) is recorded as 0.01989 mg. In data set [1] (water addition repeated 20 times, 50° C., more than the added amount), the “measured amount of p-cresol” value worked out at 0.027 mg.

As for `CCCCCCCC(=O)[O-].[Na+]` [sodium octanoate], the precipitation entry in data set [2] (sodium octanoate 100 mg/ml and 200 mg/ml, pH 6) was “Precipitation occurred”; in data set [2] (sodium octanoate with BSA and p-cresol, pH 5), “precipitation of the solution was observed”.

Take `O=C([O-])c1ccccc1O.[Na+]` [sodium salicylate]: the precipitation entry in data set [2] (sodium salicylate with BSA and p-cresol, pH 4) is “precipitation occurred”.
